Columns and labels:
Format in all cases: in vivo
[1] = system: primary antibody response to sheep's red corpuscles (SRBC), thymo-dependent antigen; assay: Primary antibody response to SRBC, direct haemolysis plaque (PFC/spleen, IgM) in immunized mice
Experimental: (§1) More particularly, the immunostimulating activity of peptides 163-171 TFA and 163-171.HCl were assayed in the antibody response to sheep's red blood compuscles, thymo-dependent antigens and in response to the polysaccharide of Streptococcus pneumoniae serotype 3 (SIII), a thymo-independent antigen having low immunogenicity by using the method of haemolysis of plaques described by Cunningham A. J. and Szenberg (Immunology, 14, 599, 1968).
The method consists in determining the number of cells which secrete antibodies specific to a given antigen. It consists in immunizing mice with the antigen to be assayed, placing lymphocytes obtained from the spleen of the immunized mice in contact with the same antigen, and finally in detecting the haemolysis plaques by adding complement.
Lysis zones (plaque-forming cells PFC) are observed at the place where the antigen-antibody reaction occurs, i.e. at each cell producing specific antibodies.
(§2) According to the invention, therefore, anti-body secreting cells of Classes IgM and IgG are determined by isolating lymphocytes from the spleen of mice immunized with SRBC and SIII antigens and treated by various methods and with various doses of peptide 163-171.TFA and peptide 163-171.HCl. To this end use has been made with identical results of inbred male C3H/HeNCr1BR mice and male and female C3H/HeJ mice weighing about 25 g. According to the invention, SRBC and SIII antigens previously dissolved in phosphate buffer (PBS) were inoculated in the mice, intravenously and intraperitoneally respectively, at a concentration of 1-2×10^8 SRBC/0.2 ml of PBS and 0.5 μg/0.5 ml of PBS. […]
The slides, sealed at the edges with paraffin, were then incubated in a thermostat at 37° C. for one hour. At the end of this period, the plaques of direct haemolysis were counted using a light-contrast visor, indicating the number of lymphocytes secreting antibodies (PFC). The thus-detected antibodies were in Class IgM, specific to the primary antibody response. […]

[2] = system: secondary antibody response to SRBC; assay: Secondary antibody response to SRBC, total PFC/spleen (IgM+IgG) in immunized mice; details: measured four days later, PBS control 29.992
Experimental: The number of IgG class antibody-secreting cells characteristic of the secondary response is determined, before the complement is added, by adding a direct rabbit antiserum against mouse immunoglobulins.
According to the invention, therefore, anti-body secreting cells of Classes IgM and IgG are determined by isolating lymphocytes from the spleen of mice immunized with SRBC and SIII antigens and treated by various methods and with various doses of peptide 163-171.TFA and peptide 163-171.HCl. To this end use has been made with identical results of inbred male C3H/HeNCr1BR mice and male and female C3H/HeJ mice weighing about 25 g. According to the invention, SRBC and SIII antigens previously dissolved in phosphate buffer (PBS) were inoculated in the mice, intravenously and intraperitoneally respectively, at a concentration of 1-2×10^8 SRBC/0.2 ml of PBS and 0.5 μg/0.5 ml of PBS.
Mice immunized with SRBC as in Example 1 hereinbefore were intraperitoneally re-inoculated four days after the first inoculation with a similar dose of SRBC antigens and simultaneously with 12, 36, 100 mg/kg peptide 163-171.TFA and 500 - 1000 - 2000 U/kg of human IL-1-β.
The immunostimulating activity of the peptide on the secondary response to SRBC was also determined by administering the same doses of peptide and human IL-1β but only with the first inoculation.
Four days after the second dose the mice were killed and the number of PFC/spleen was determined as in Example 1, after combining the complement with a rabbit serum against mouse immunoglobulin at a final dilution of 1:200.
^a The mice intravenously inoculated with 1-2 × 10^8 SRBC o
day -10 and were given a similar dose on day 0 and simultaneously treated
intraperitoneally with PBS (control) or with various doses of peptide
163-171.TFA or hu rIL1β. The total number of antiSRBC PFC was
measured four days after the second inoculation of antigen.
The procedure was the same as in Example 4, the antigen being intravenously inoculated together with preparations of peptide 163-171.TFA and 163-171.HCl (from 100 pg/kg to 100 μg/kg in PBS).

[3] = system: primary response to polysaccharide of Streptococcus pneumoniae serotype 3 (SIII); assay: Primary antibody response to thymo-independent antigen SIII, PFC/spleen in immunized mice; details: 500 U/kg intraperitoneally
Experimental: as §1, §2
The adjuvant activity of peptide 163-171.TFA and of human IL-1-β were then determined as in Example 1 by using 25 μl of a 10% suspension of SIII antigen conjugated with SRBC by chromium chloride in PBS (Baker P. J. et al. Appl. Microbiol. 17, 422 (1969)). […]

In the case of “hu rIL-1β: human interleukin 1β (Genzyme Corporation Boston), comparator adjuvant”, the “Statistical significance versus control of PFC/spleen, primary response to SRBC (FIG. 1-B)” value ([1]; 4000 U/kg intraperitoneally) is reported as “non-significant”, the “Effect on number of plaques/spleen, primary response to SRBC (FIGS. 1A, 1B)” value ([1]; intraperitoneal, peptide 12-100 mg/kg, IL-1β 500-4000 U/kg, depending on the dose) is reported as “increase in the number of plaques/spleen” and the Optimum intravenous dose ([1]; intravenous, response not specified) is reported as 0.0001 µg/kg. The “Average of total anti-SRBC PFC-spleen (95% confidence limits)” value (“Average … (95% confidence limits)” for short) ([2]; 500 U/kg intraperitoneally with second SRBC inoculum (day 0)) was 59.841 (45.604-78.343) PFC-spleen, the “Average … (95% confidence limits)” value ([2]; 1000 U/kg intraperitoneally with second SRBC inoculum (day 0)) was 77.624 (61.502-97.499) PFC-spleen and the “Average … (95% confidence limits)” value ([2]; 2000 U/kg intraperitoneally with second SRBC inoculum (day 0)) was 100.000 (84.139-118.850) PFC-spleen. For the same substance, the “Average … (95% confidence limits)” value ([2]; 4000 U/kg intraperitoneally with second SRBC inoculum (day 0)) was 42.364 (29.853-59.979) PFC-spleen and the “Statistical significance versus control of PFC/spleen, primary response to SIII (FIG. 5)” value [3] was “non-significant”.

Reference: patent US5206014A, “Synthetic nonapeptide for use as an adjuvant” (Sclavo, S.p.A., priority 1987, dated 1993)
